According to ChEMBL document CHEMBL1201862, “PubChem BioAssay data set” (2004):
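All cell lines were grown in 96-well plates and treated with compound for 48 hours. GI50 marks 50% less growth.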 Calls of active or inactive are those of the source. No stated cut-off is given here; in the data, active = GI50 up to about 1.1 µM and inactive = higher.

Experiments:
Assay in all cases: NCI-60 cell line screen, 48 h
CAKI-1 = tested on: CAKI-1
OVCAR-8 = tested on: OVCAR-8
CCRF-CEM = tested on: CCRF-CEM
KM12 = tested on: KM12
MDA-N = tested on: MDA-N
RPMI-8226 = tested on: RPMI-8226
TK-10 = tested on: TK-10
MDA-MB-435 = tested on: MDA-MB-435
LOX IMVI = tested on: LOX IMVI
SN12C = tested on: SN12C
MDA-MB-231 = tested on: MDA-MB-231
SK-MEL-2 = tested on: SK-MEL-2
ACHN = tested on: ACHN
HOP-62 = tested on: HOP-62
786-0 = tested on: 786-0
NCI-H522 = tested on: NCI-H522
OVCAR-5 = tested on: OVCAR-5
K562 = tested on: K562
HOP-92 = tested on: HOP-92
HCC 2998 = tested on: HCC 2998

Measured: GI50

CSc1cccc(NC(=O)OC2CCCCCCCCCCC2)c1
inactive: CAKI-1 17.6 µM | OVCAR-8 26.7 µM | CCRF-CEM 16.4 µM | KM12 13.3 µM | MDA-N 21 µM | RPMI-8226 14.7 µM | TK-10 26.9 µM | MDA-MB-435 15.7 µM | LOX IMVI 18 µM | SN12C 15.5 µM | MDA-MB-231 23.6 µM | SK-MEL-2 18.4 µM | ACHN 27.7 µM | HOP-62 18.8 µM | 786-0 20.9 µM | NCI-H522 13.2 µM | OVCAR-5 30.3 µM | K562 16.4 µM | HOP-92 27.4 µM

Cn1c(=O)c2c(ncn2CN2CCN(Cn3cnc4c3c(=O)n(C)c(=O)n4C)CC2)n(C)c1=O
inactive: CAKI-1 77.3 µM | OVCAR-8 44.6 µM | CCRF-CEM 21.9 µM | KM12 92.5 µM | MDA-N 50.2 µM | RPMI-8226 22.7 µM | TK-10 21.5 µM | MDA-MB-435 86.5 µM | LOX IMVI 24.2 µM | SN12C 46.9 µM | MDA-MB-231 > 100 µM | SK-MEL-2 > 100 µM | ACHN 27 µM | HOP-62 > 100 µM | 786-0 29 µM | NCI-H522 44.7 µM | OVCAR-5 > 100 µM | K562 31.7 µM | HOP-92 52 µM

CCOC(=O)OC1C(Br)C2CCC1(C)C2(C)C (centres undefined)
inactive: OVCAR-8 16 µM | HCC 2998 12.3 µM | CCRF-CEM 4.88 µM | KM12 14 µM | MDA-N 15 µM | RPMI-8226 5.46 µM | TK-10 14.2 µM | MDA-MB-435 11.4 µM | LOX IMVI 6.59 µM | SN12C 14.4 µM | MDA-MB-231 11.9 µM | ACHN 15.3 µM | HOP-62 16.6 µM | 786-0 14.1 µM | NCI-H522 15.2 µM | OVCAR-5 17.7 µM | K562 5.79 µM | HOP-92 13.2 µM

CC(=O)/C=C1/C(=O)C(CC(C)C)=C1CC(C)C
inactive: CAKI-1 > 100 µM | OVCAR-8 > 100 µM | CCRF-CEM 53.8 µM | KM12 > 100 µM | MDA-N > 100 µM | TK-10 > 100 µM | MDA-MB-435 > 100 µM | LOX IMVI > 100 µM | SN12C > 100 µM | MDA-MB-231 > 100 µM | SK-MEL-2 > 100 µM | ACHN > 100 µM | HOP-62 > 100 µM | 786-0 > 100 µM | NCI-H522 > 100 µM | OVCAR-5 > 100 µM | HOP-92 > 100 µM

CCCNC(=O)c1cc(OC)c(OC)cc1NC(=O)C12CC3CC(CC(C3)C1)C2
inactive: CAKI-1 19.8 µM | OVCAR-8 23.7 µM | CCRF-CEM 28.2 µM | KM12 17.6 µM | MDA-N 16.7 µM | RPMI-8226 32.4 µM | TK-10 16.6 µM | MDA-MB-435 17.9 µM | LOX IMVI 19.5 µM | SN12C 16.1 µM | MDA-MB-231 16.9 µM | SK-MEL-2 15.5 µM | ACHN 14.5 µM | HOP-62 19.7 µM | 786-0 17 µM | NCI-H522 12.3 µM | OVCAR-5 20.2 µM | K562 31.9 µM | HOP-92 18.3 µM

CC1(C)CCC2(C(=O)OC3OC(CO)C(O)C(O)C3O)CCC3(CO)C(=CCC4C5(C)CC(O)C(O)C(C)(C(=O)OC6OC(CO)C(O)C(O)C6O)C5CCC43C)C2C1 (centres undefined)
inactive: CAKI-1 > 100 µM | OVCAR-8 > 100 µM | HCC 2998 > 100 µM | KM12 > 100 µM | MDA-N > 100 µM | TK-10 > 100 µM | MDA-MB-435 > 100 µM | LOX IMVI > 100 µM | SN12C > 100 µM | MDA-MB-231 > 100 µM | SK-MEL-2 > 100 µM | ACHN > 100 µM | HOP-62 > 100 µM | 786-0 > 100 µM | NCI-H522 > 100 µM | OVCAR-5 > 100 µM | K562 > 100 µM | HOP-92 > 100 µM

COc1ccc2c(-c3csc(-c4c[nH]c5ccc(Br)cc45)n3)c[nH]c2c1
inactive: CAKI-1 85.7 µM | OVCAR-8 > 100 µM | CCRF-CEM 27.7 µM | KM12 43.6 µM | MDA-N 8.26 µM | RPMI-8226 27.1 µM | TK-10 49 µM | MDA-MB-435 7.69 µM | LOX IMVI 64.1 µM | SN12C 58.1 µM | MDA-MB-231 13.9 µM | SK-MEL-2 19.1 µM | ACHN 70 µM | HOP-62 62.4 µM | 786-0 27.4 µM | NCI-H522 23.1 µM | OVCAR-5 42.8 µM | K562 15.2 µM | HOP-92 64.3 µM

COC(=O)C[C@H]1[C@]2(C)C3=C(C)[C@H](c4ccoc4)CC3O[C@@H]2[C@@H]2OC(=O)[C@]3(C)CCC(=O)[C@@]1(C)[C@@H]23 (some centres undefined)
inactive: CAKI-1 52.5 µM | OVCAR-8 44.8 µM | CCRF-CEM 19.9 µM | KM12 > 100 µM | MDA-N 49.9 µM | RPMI-8226 19.1 µM | MDA-MB-435 37.2 µM | LOX IMVI 40.1 µM | SN12C 69.7 µM | MDA-MB-231 > 100 µM | SK-MEL-2 > 100 µM | ACHN > 100 µM | HOP-62 > 100 µM | 786-0 32.3 µM | NCI-H522 14.5 µM | OVCAR-5 27.5 µM | K562 35.2 µM | HOP-92 > 100 µM

COC(=O)[C@]1(C)CCC[C@]2(C)[C@@H](CCC(=O)C(C)C)[C@]3(C=O)O[C@@H]3C[C@H]21
inactive: CAKI-1 14.8 µM | OVCAR-8 39.4 µM | HCC 2998 58.6 µM | CCRF-CEM 32.2 µM | KM12 34.3 µM | MDA-N 23.6 µM | TK-10 51.8 µM | MDA-MB-435 28.2 µM | LOX IMVI 24.7 µM | SN12C 30.6 µM | MDA-MB-231 52 µM | SK-MEL-2 34.1 µM | ACHN 27 µM | 786-0 32.4 µM | NCI-H522 16.8 µM | OVCAR-5 > 100 µM | K562 27.9 µM | HOP-92 29.8 µM

COc1cc(C[C@@H](C)N)cc(OC)c1
inactive: CAKI-1 > 100 µM | OVCAR-8 > 100 µM | HCC 2998 > 100 µM | CCRF-CEM > 100 µM | KM12 > 100 µM | MDA-N > 100 µM | RPMI-8226 > 100 µM | TK-10 > 100 µM | MDA-MB-435 > 100 µM | LOX IMVI > 100 µM | SN12C > 100 µM | MDA-MB-231 > 100 µM | SK-MEL-2 > 100 µM | ACHN > 100 µM | HOP-62 > 100 µM | 786-0 > 100 µM | NCI-H522 > 100 µM | OVCAR-5 > 100 µM | K562 > 100 µM
